Here are results for one compound from PMC9598367, “Discovery and Preliminary Structure-Activity Investigation of 3-Substituted-1H-imidazol-5-yl-1H-indoles with In Vitro Activity towards Methicillin-Resistant Staphylococcus aureus” (Antibiotics, 2022).

Values after ≈ are worked out from the molar mass of the structure shown.

In data set [1] the test system is S. aureus (ATCC25923). Put plainly: Membrane depolarization assay, DiSC3(5). To be noted: preliminary investigation; result in words. It counts as cell-based, Staphylococcus aureus. As for the experimental part: S. aureus (ATCC25923) was grown in MH II broth for 24 h at 37 °C. After reaching an OD600 nm of 0.5, cells were centrifuged (3600× g for 20 min at 20 °C) and washed twice with buffered sucrose solution (250 mM), magnesium sulfate solution (25 mM) and Hepes (5 mM) (pH = 7.2). The fluorescent dye […] DiSC3(5) was added to a final concentration of 5 µM and was incubated with the suspensions for 5 min at 37 °C to allow the dye incorporation into the polarized membranes. 10 µL of compound was then added to 90 µL of the fluorescent suspensions at different concentrations ranging from 200 µM to 25 µM. Fluorescence measurements were recorded for 20 minutes (excitation wavelength 622 nm, emission wavelength 690 nm).
The difference in the relative fluorescence values (RFU) from the control containing only buffer and the control containing bacteria treated only with cetyltrimethylammonium bromide ([…]) is taken as the maximum level of depolarization. Assays were performed in three independent experiments. Blank determined by using no compound. Maximum RFU determined by using CTAB 0.1%
Equation used: (RFU of the compound−RFU of the blank)×100/RFU of the maximum

Data set [2] relates to human red blood cells. Briefly: Hemolytic assay. It counts as cell-based. To be noted: concentration at 10% hemolytic activity on human red blood cells; mean (n = 2).
The test system of data set [3] is Staphylococcus aureus ATCC43300 (MRSA). Put plainly: MIC, MRSA ATCC43300 (CO-ADD protocol). Type of data set: cell-based. To be noted: Staphylococcus aureus, Staphylococcus aureus ATCC43300 (MRSA); mean (n = 2); read-out: MIC (µg/mL) MRSA. From the text: Additional antimicrobial evaluation against Staphylococcus aureus MRSA (ATCC43300), Pseudomonas aeruginosa (ATCC27853), Escherichia coli (ATCC25922), Klebsiella pneumoniae (ATCC700603), Acinetobacter baumannii (ATCC19606), Candida albicans (ATCC90028), and Cryptococcus neoformans (ATCC208821) was undertaken at the Community for Open Antimicrobial Drug Discovery at The University of Queensland (Australia) according to their standard protocols. For antimicrobial assays, the tested strains were cultured in either Luria broth (LB) (In Vitro Technologies, USB75852, Noble Park North, Australia), nutrient broth (NB) (Becton Dickson, 234000, Macquarie Park, Australia), or cation-adjusted MHB at 37 °C overnight. A sample of culture was then diluted 40-fold in fresh MHB and incubated at 37 °C for 1.5−2 h. The compounds were serially diluted 2-fold across the wells of 96-well plates (Corning 3641, Tewksbury, MA, USA, nonbinding surface), with compound concentrations ranging from 0.015 to 64 μg/mL, plated in duplicate. The resultant mid log phase cultures were diluted to the final concentration of 1 × 10^6 CFU/mL; then, 50 μL was added to each well of the compound containing plates giving a final compound concentration range of 0.008 to 32 μg/mL and a cell density of 5 × 10^5 CFU/mL. All plates were then covered and incubated at 37 °C for 18 h. Resazurin was added at 0.001% final concentration to each well and incubated for 2 h before MICs were read by eye.
(§1) Colistin and vancomycin were used as positive bacterial inhibitor standards for Gram-negative and Gram-positive bacteria, respectively. Fluconazole was used as a positive fungal inhibitor standard for C. albicans and C. neoformans. The antibiotics were provided in 4 concentrations, with 2 above and 2 below its MIC value, and plated into the first 8 wells of column 23 of the 384-well NBS plates. The quality control (QC) of the assays was determined by the antimicrobial controls and the Z′-factor (using positive and negative controls).

Data set [4] can be described thus: HEK293 cytotoxicity assay (resazurin). To be noted: human; concentration at 50% cytotoxicity on HEK293 cells; mean (n = 2). Type of data set: cell-based, human. As for the experimental part: For the HEK293 cytotoxicity assay, cells were counted manually in a Neubauer hemocytometer and plated at a density of 5000 cells/well into each well of the 384-well plates containing the 25× (2 μL) concentrated compounds. The medium used was Dulbecco’s modified eagle medium (DMEM) supplemented with 10% fetal bovine serum (FBS). Cells were incubated together with the compounds for 20 h at 37 °C, 5% CO2. To measure cytotoxicity, 5 μL (equals 100 μM final) of resazurin was added to each well after incubation, and incubated for further 3 h at 37 °C with 5% CO2. After final incubation fluorescence intensity was measured as Fex 560/10 nm, em 590/10 nm (F560/590) using a Tecan M1000 Pro monochromator plate reader. CC50 values (concentration at 50% cytotoxicity) were calculated by normalizing the fluorescence readout, with 74 μg/mL tamoxifen as negative control (0%) and normal cell growth as positive control (100%). The concentration-dependent percentage cytotoxicity was fitted to a dose response function (using Pipeline Pilot) and CC50 values determined.
Background: Resazurin is reduced to fluorescent resorufin, in cell work by metabolically active cells.

Data set [5] has as its system Cryptococcus neoformans ATCC208821. Put plainly: Antifungal MIC, C. neoformans. Type of data set: cell-based. Particulars: Cryptococcus neoformans ATCC208821; mean (n = 2). As for the experimental part: For the antifungal assay, fungi strains were cultured for 3 days on yeast extract-peptone dextrose (YPD) agar at 30 °C. A yeast suspension of 1 × 10^6 to 5 × 10^6 CFU/mL was prepared from five colonies. These stock suspensions were diluted with yeast nitrogen base (YNB) (Becton Dickinson, 233520) broth to a final concentration of 2.5 × 10^3 CFU/mL. The compounds were serially diluted 2-fold across the wells of 96-well plates (Corning 3641, nonbinding surface), with compound concentrations ranging from 0.015 to 64 μg/mL and final volumes of 50 μL, plated in duplicate. Then, 50 μL of the fungi suspension that was previously prepared in YNB broth to the final concentration of 2.5 × 10^3 CFU/mL was added to each well of the compound-containing plates, giving a final compound concentration range of 0.008 to 32 μg/mL. Plates were covered and incubated at 35 °C for 36 h without shaking. C. albicans MICs were determined by measuring the absorbance at OD530. For C. neoformans, resazurin was added at 0.006% final concentration to each well and incubated for a further 3 h before MICs were determined by measuring the absorbance at OD570–600.
as §1

Data set [6] deals with Staphylococcus aureus ATCC25923. Put plainly: MIC by broth dilution, S. aureus ATCC25923. Type of data set: cell-based. As for the experimental part: The susceptibility of S. aureus (ATCC25923) to antibiotics and compounds was determined in microplates using the standard broth dilution method in accordance with the recommendations of the Comité de l’AntibioGramme de la Société Française de Microbiologie (CA-SFM) as previously described. Briefly, the minimal inhibitory concentrations (MICs) were determined with an inoculum of 10^5 CFU in 200 µL of Mueller-Hinton broth (MHB) containing two-fold serial dilutions of each drug. […] To determine all MICs, the measurements were independently repeated in triplicate.

Broadly, the CC50 is the concentration at which the toxic effect on the cells reaches its halfway point. In general, melting point refers to the temperature of the solid-liquid transition. Compound `Fc1ccc2c(-c3cncn3Cc3ccc(I)cc3)c[nH]c2c1` [Compound 6, 6-Fluoro-3-(1-(4-iodobenzyl)-1H-imidazol-5-yl)-1H-indole] registered a melting point of 191 to 192 °C. For the same compound, in data set [1], the “membrane depolarization of S. aureus” value is “only very weak membrane depolarization”. In addition, the “HC10” value in data set [2] was over 32 µg/mL. Moreover, in data set [3], the MIC was over 32 µg/mL. Moreover, the CC50 at 20 h in data set [4] came to 15.6 mg/L (≈ 37.4 µM). Moreover, the MIC in data set [5] was found to be 32 mg/L (≈ 76.7 µM). The compound further displayed an MIC in data set [6] (Staphylococcus aureus ATCC25923, mean (n = 3)) of 6.25 mg/L (≈ 15 µM). The “activity against S. aureus (in words)” value in data set [6] (result in words) is “strong activity”.
